# How the values were obtained:
# Format in all cases: cell-based
# S. aureus cells [1] = test: Recovery of porphyrine bonded to S. aureus cells after dark incubation and washing steps; details: 1 μM porphyrine, 5 minutes in the dark
# Method: (§1) For this, porphyrines of different chemical structures (see drawing) were incubated with E. coli and S. aureus cells in the dark. The porphyrines were added to aqueous suspension comprising an amount of bacterial cells of 10^8 per ml and stored for 5 minutes in the dark. Finally, the amount of porphyrine bonded to the cells was measured depending on the number of washing […] (the washing was carried out by means of physiological solutions) by chemical extraction followed spectrophotofluorimetric determination.
# E. coli cells [2] = test: Inhibition of growth of E. coli cells after 5-minute incubation in the dark (optical density at 650 nm); details: growth at 37° C
# Method: as §1
# (§2) The survival rate of the bacterial cells after incubation with the different porphyrines was determined by diluting 0.3 ml of the suspension with 2.7 ml of the culture medium and recording the optical density at 650 nm depending on the time. The suspensions were kept at 37° C. The percentual inhibition of growth was calculated with reference to a suspension of comparative cells which had been treated with the same method, however had not been added to the porphyrine.
# E. coli cells [3] = test: Recovery of porphyrine bonded to E. coli cells after dark incubation and washing steps; details: 1 μM porphyrine, 5 minutes
# Method: as §1
# S. aureus cells [4] = test: Inhibition of growth of S. aureus cells after 5-minute incubation in the dark (optical density at 650 nm); details: growth at 37° C
# Method: as §1, §2
SMILES,recovery (nmol/mg protein) 1 washing step (S. aureus cells [1]),recovery (nmol/mg protein) 3 washing steps (S. aureus cells [1]),% bonded after 3 washing steps (S. aureus cells [1]),recovery (nmol/mg protein) no washing (S. aureus cells [1]),inhibition of growth (%) E. coli (E. coli cells [2]; 1 μM porphyrine),inhibition of growth (%) E. coli (E. coli cells [2]; 10 μM porphyrine),recovery (nmol/mg protein) 1 washing step (E. coli cells [3]),recovery (nmol/mg protein) 3 washing steps (E. coli cells [3]),% bonded after 3 washing steps (E. coli cells [3]),recovery (nmol/mg protein) no washing (E. coli cells [3]),inhibition of growth (%) S. aureus (S. aureus cells [4]; 1 μM porphyrine),inhibition of growth (%) S. aureus (S. aureus cells [4]; 10 μM porphyrine)
CCCCCCCCCCCCCCCCCCCCCC[n+]1ccc(-c2c3nc(c(-c4cc[n+](C)cc4)c4ccc([nH]4)c(-c4cc[n+](C)cc4)c4nc(c(-c5cc[n+](C)cc5)c5ccc2[nH]5)C=C4)C=C3)cc1 [mono-C22],5.65 ± 0.13 nmol/mg protein,4.95 ± 0.30 nmol/mg protein,77.5%,6.39 ± 0.40 nmol/mg protein,19.1%,16.8%,2.60 ± 0.04 nmol/mg protein,3.04 ± 0.34 nmol/mg protein,59.4%,5.12 ± 0.46 nmol/mg protein,39.9%,70.1%
C[n+]1ccc(-c2c3nc(c(-c4cc[n+](C)cc4)c4ccc([nH]4)c(-c4cc[n+](C)cc4)c4nc(c(-c5cc[n+](C)cc5)c5ccc2[nH]5)C=C4)C=C3)cc1 [T4MPyP],0.10 ± 0.01 nmol/mg protein,0.11 ± 0.01 nmol/mg protein,16.2%,0.68 ± 0.05 nmol/mg protein,0.6%,3.1%,0.19 ± 0.04 nmol/mg protein,0.05 ± 0.01 nmol/mg protein,11.4%,0.44 ± 0.04 nmol/mg protein,3.1%,7.8%
CCCCCCCCCCCCCCCCCC[n+]1ccc(-c2c3nc(c(-c4cc[n+](C)cc4)c4ccc([nH]4)c(-c4cc[n+](C)cc4)c4nc(c(-c5cc[n+](C)cc5)c5ccc2[nH]5)C=C4)C=C3)cc1 [mono-C18],,,,,2.7%,85.7%,4.08 ± 0.62 nmol/mg protein,2.54 ± 0.38 nmol/mg protein,60.5%,4.20 ± 0.16 nmol/mg protein,39.8%,96.6%
C[n+]1ccc(-c2c3nc(c(-c4cc[n+](C)cc4)c4ccc([nH]4)c(-c4cc[n+](Cc5ccccc5)cc4)c4nc(c(-c5cc[n+](C)cc5)c5ccc2[nH]5)C=C4)C=C3)cc1 [mono-benzyl],,,,,0.1%,13%,1.67 ± 0.06 nmol/mg protein,0.71 ± 0.08 nmol/mg protein,28.2%,2.52 ± 0.13 nmol/mg protein,1.6%,25%
CCCCCCCCCC[n+]1ccc(-c2c3nc(c(-c4cc[n+](C)cc4)c4ccc([nH]4)c(-c4cc[n+](C)cc4)c4nc(c(-c5cc[n+](C)cc5)c5ccc2[nH]5)C=C4)C=C3)cc1 [mono-C10],5.70 ± 0.54 nmol/mg protein,4.09 ± 0.13 nmol/mg protein,57.4%,7.13 ± 0.25 nmol/mg protein,4.6%,10.7%,2.78 ± 0.53 nmol/mg protein,1.48 ± 0.38 nmol/mg protein,40.4%,3.66 ± 0.071 nmol/mg protein,27.8%,50%
CCCCCC[n+]1ccc(-c2c3nc(c(-c4cc[n+](CCCCCC)cc4)c4ccc([nH]4)c(-c4cc[n+](CCCCCC)cc4)c4nc(c(-c5cc[n+](CCCCCC)cc5)c5ccc2[nH]5)C=C4)C=C3)cc1 [tetra-C6],,,,,,,1.39 ± 0.23 nmol/mg protein,0.94 ± 0.24 nmol/mg protein,57.0%,1.65 ± 0.17 nmol/mg protein,,
CCCCCC[n+]1ccc(-c2c3nc(c(-c4cc[n+](C)cc4)c4ccc([nH]4)c(-c4cc[n+](C)cc4)c4nc(c(-c5cc[n+](C)cc5)c5ccc2[nH]5)C=C4)C=C3)cc1 [mono-C6],2.05 ± 0.11 nmol/mg protein,1.02 ± 0.12 nmol/mg protein,33.6%,3.04 ± 0.05 nmol/mg protein,0.5%,14.6%,1.01 ± 0.12 nmol/mg protein,0.39 ± 0.12 nmol/mg protein,24.7%,1.58 ± 0.28 nmol/mg protein,5.1%,8.8%
CCCCCCCCCCCCCC[n+]1ccc(-c2c3nc(c(-c4cc[n+](C)cc4)c4ccc([nH]4)c(-c4cc[n+](C)cc4)c4nc(c(-c5cc[n+](C)cc5)c5ccc2[nH]5)C=C4)C=C3)cc1 [mono-C14],5.53 ± 0.74 nmol/mg protein,4.32 ± 0.13 nmol/mg protein,65.9%,6.56 ± 0.40 nmol/mg protein,46.1%,100%,3.06 ± 0.25 nmol/mg protein,2.28 ± 0.04 nmol/mg protein,42.4%,5.38 ± 0.06 nmol/mg protein,69.1%,92.4%

# Reference: patent publication US20030153546A1, “Microbicidal effect of prophyrines in darkness” (priority 1999, published 2003)
